Experimental data: patent US10730870B2, “Compounds and methods for the enhanced degradation of targeted proteins” (Arvinas, Inc., priority 2015, dated 2020)

Biological target: VHL (Homo sapiens (Human), UniProt P40337)
Assay: VHL fluorescence polarization (FP) competition assay
Type: binding

SMILES	IC50 (1% in DMSO)	IC50 (0.25% in DMSO)	IC50 (10% in DMSO)
CC(C)[C@@H](C(=O)N1C[C@H](O)C[C@H]1C(=O)NCc1ccc(-c2cnn[nH]2)cc1)N1Cc2ccccc2C1=O [Example 100, (2S,4R)—N-(4-(1H-1,2,3-triazol-5-yl)benzyl)-4-hydroxy-1-((S)-3-methyl-2-(1-oxoisoindolin-2-yl)butanoyl)pyrrolidine-2-carboxamide]	9.77 µM	–	–
Cc1ncsc1-c1ccc(CNC(=O)[C@@H]2C[C@@H](O)CN2c2cccc(Oc3ccccc3)c2)cc1 [Example 109, (2S,4R)-4-hydroxy-N-(4-(4-methylthiazol-5-yl)benzyl)-1-(3-phenoxyphenyl)pyrrolidine-2-carboxamide]	6.67 µM	–	–
Cc1ncsc1-c1ccc(CNC(=O)[C@@H]2C[C@@H](O)CN2C(=O)[C@@H](NC(=O)C(C)(C)C)C(C)(C)C)cc1 [Example 14, (2S,4R)-1-((S)-3,3-dimethyl-2-pivalamidobutanoyl)-4-hydroxy-N-(4-(4-methylthiazol-5-yl)benzyl)pyrrolidine-2-carboxamide]	4.63 µM	7.15 µM	13.3 µM
CC(C)[C@@H](C(=O)N1C[C@H](O)C[C@H]1C(=O)NCc1ccc(-c2scnc2C(F)(F)F)cc1)N1Cc2ccccc2C1=O [Example 102, (2S,4R)-4-hydroxy-1-((S)-3-methyl-2-(1-oxoisoindolin-2-yl)butanoyl)-N-(4-(4-(trifluoromethyl)thiazol-5-yl)benzyl)pyrrolidine-2-carboxamide]	7.75 µM	–	–
Cc1ncsc1-c1ccc(CNC(=O)[C@@H]2C[C@@H](O)CN2C(=O)[C@H](C(C)C)N2Cc3ccc(F)cc3C2=O)cc1 [Example 9]	0.309 µM	1.28 µM	0.498 µM
Cc1cnccc1-c1ccc(CNC(=O)[C@@H]2C[C@@H](O)CN2C(=O)[C@H](C(C)C)N2Cc3ccccc3C2=O)cc1 [Example 80, (2S,4R)-4-hydroxy-1-((S)-3-methyl-2-(1-oxoisoindolin-2-yl)butanoyl)-N-(4-(3-methylpyridin-4-yl)benzyl)pyrrolidine-2-carboxamide]	22.4 µM	–	38.9 µM
Cc1ncsc1-c1ccc(CN/C(=N/C#N)[C@@H]2C[C@@H](O)CN2C(=O)[C@H](C(C)C)N2Cc3ccccc3C2=O)cc1 [Example 112, (2S,4R,E)-N′-cyano-4-hydroxy-1-((S)-3-methyl-2-(1-oxoisoindolin-2-yl)butanoyl)-N-(4-(4-methylthiazol-5-yl)benzyl)pyrrolidine-2-carboximidamide]	> 100 µM	–	–
Cc1ncsc1-c1ccc(CNC[C@@H]2C[C@@H](O)CN2C(=O)[C@H](C(C)C)N2Cc3ccccc3C2=O)cc1 [Example 121, 2-((S)-1-((2S,4R)-4-hydroxy-2-((4-(4-methylthiazol-5-yl)benzylamino)methyl)pyrrolidin-1-yl)-3-methyl-1-oxobutan-2-yl)isoindolin-1-one]	> 100 µM	–	–
Cc1ncsc1-c1ccc([C@H](C)NC(=O)[C@@H]2C[C@@H](O)CN2C(=O)[C@H](C(C)C)N2Cc3ccccc3C2=O)cc1 [Example 39, (2S,4R)-4-hydroxy-N-[(1S)-1-[4-(4-methyl-1,3-thiazol-5-yl)phenyl]ethyl]-1-[(2S)-3-methyl-2-(1-oxo-2,3-dihydro-1H-isoindol-2-yl)butanoyl]pyrrolidine-2-carboxamide]	0.699 µM	0.958 µM	1.63 µM
CC(C)[C@@H](C(=O)N1C[C@H](O)C[C@H]1C(=O)NCc1ccc(C2CCCC2)cc1)N1Cc2ccccc2C1=O [Example 115, (2S,4R)—N-(4-cyclopentylbenzyl)-4-hydroxy-1-((S)-3-methyl-2-(1-oxoisoindolin-2-yl)butanoyl)pyrrolidine-2-carboxamide]	15.8 µM	–	–
Cc1ncsc1-c1ccc(CNC(=O)[C@@H]2C[C@@H](O)CN2C(=O)[C@@H](NC(=O)CCC2CCCCC2)C(C)(C)C)cc1 [Example 20, (2S,4R)-1-((S)-2-(3-cyclohexylpropanamido)-3,3-dimethylbutanoyl)-4-hydroxy-N-(4-(4-methylthiazol-5-yl)benzyl)pyrrolidine-2-carboxamide]	1.05 µM	4.96 µM	1.15 µM
Cc1ncsc1-c1ccc(CNC(=O)[C@@H]2C[C@@H](O)CN2C(=O)[C@H](C2CCCC2)N2Cc3ccccc3C2=O)cc1 [Example 38, (2S,4R)-1-((S)-2-cyclopentyl-2-(1-oxoisoindolin-2-yl)acetyl)-4-hydroxy-N-(4-(4-methylthiazol-5-yl)benzyl)pyrrolidine-2-carboxamide]	0.758 µM	2.19 µM	1.09 µM
Cc1ncsc1-c1ccc(CNC(=O)[C@@H]2C[C@@H](O)CN2C(=O)[C@H](C(C)C)N2Cc3cccc(C#N)c3C2=O)cc1 [Example 47, (2S,4R)-1-((S)-2-(7-cyano-1-oxoisoindolin-2-yl)-3-methylbutanoyl)-4-hydroxy-N-(4-(4-methylthiazol-5-yl)benzyl)pyrrolidine-2-carboxamide]	0.178 µM	–	0.339 µM
Cc1ncsc1-c1ccc(CNC(=O)[C@@H]2C[C@@H](O)CN2C(=O)[C@@H](NC(=O)CNC(=O)OC(C)(C)C)C(C)(C)C)cc1 [Example 124, tert-butyl 2-((S)-1-((2S,4R)-4-hydroxy-2-(4-(4-methylthiazol-5-yl)benzylcarbamoyl)pyrrolidin-1-yl)-3,3-dimethyl-1-oxobutan-2-ylamino)-2-oxoethylcarbamate]	1.11 µM	–	–
CC(C)[C@@H](C(=O)N1C[C@H](O)C[C@H]1C(=O)NCc1ccc(C2CCCCC2)cc1)N1Cc2ccccc2C1=O [Example 117, (2S,4R)—N-(4-cyclohexylbenzyl)-4-hydroxy-1-((S)-3-methyl-2-(1-oxoisoindolin-2-yl)butanoyl)pyrrolidine-2-carboxamide]	15.5 µM	–	–
Cc1ncsc1-c1ccc(CNC(=O)[C@@H]2C[C@@H](O)CN2C(=O)[C@H](C(C)C)N2Cc3ccc(C#N)cc3C2=O)cc1 [Example 17, (2S,4R)-1-((S)-2-(6-cyano-1-oxoisoindolin-2-yl)-3-methylbutanoyl)-4-hydroxy-N-(4-(4-methylthiazol-5-yl)benzyl)pyrrolidine-2-carboxamide]	0.317 µM	2.2 µM	1.07 µM
CC(C)[C@@H](C(=O)N1C[C@H](O)C[C@H]1C(=O)NCc1ccc(C2=CCCC2)cc1)N1Cc2ccccc2C1=O [Example 116, (2S,4R)—N-(4-cyclopentenylbenzyl)-4-hydroxy-1-((S)-3-methyl-2-(1-oxoisoindolin-2-yl)butanoyl)pyrrolidine-2-carboxamide]	3.9 µM	–	–

The next lines start with the values.

IC50 (1% in DMSO)	IC50 (0.25% in DMSO)	IC50 (10% in DMSO)	SMILES
0.566 µM	–	–	CC[C@H](C)[C@@H](C(=O)N1C[C@H](O)C[C@H]1C(=O)NCc1ccc(-c2scnc2C)cc1)N1Cc2ccc(F)cc2C1=O [Example 94, (2S,4R)-1-((2S,3S)-2-(6-fluoro-1-oxoisoindolin-2-yl)-3-methylpentanoyl)-4-hydroxy-N-(4-(4-methylthiazol-5-yl)benzyl)pyrrolidine-2-carboxamide]
19400 µM	–	5100 µM	Cc1ncsc1-c1ccc(CNC(=O)[C@@H]2C[C@@H](O)CN2C(=O)C(C)(C)N2Cc3ccccc3C2=O)cc1 [Example 46, (2S,4R)-4-hydroxy-1-(2-methyl-2-(1-oxoisoindolin-2-yl)propanoyl)-N-(4-(4-methylthiazol-5-yl)benzyl)pyrrolidine-2-carboxamide]
1.64 µM	–	–	Cc1ncsc1-c1ccc(CNC(=O)[C@@H]2C[C@@H](O)CN2C(=O)[C@@H](NC(=O)CN)C(C)(C)C)cc1 [Example 125, (2S,4R)-1-((S)-2-(2-aminoacetamido)-3,3-dimethylbutanoyl)-4-hydroxy-N-(4-(4-methylthiazol-5-yl)benzyl)pyrrolidine-2-carboxamide]
1.34 µM	3.37 µM	2.94 µM	CCCC(=O)N[C@H](C(=O)N1C[C@H](O)C[C@H]1C(=O)NCc1ccc(-c2scnc2C)cc1)C(C)(C)C [Example 13, (2S,4R)-1-((S)-2-butyramido-3,3-dimethylbutanoyl)-4-hydroxy-N-(4-(4-methylthiazol-5-yl)benzyl)pyrrolidine-2-carboxamide]
1.03 µM	–	0.81 µM	Cc1ncsc1-c1ccc(CNC(=O)[C@@H]2C[C@@H](O)CN2C(=O)[C@@H](NC(=O)c2ccccn2)C(C)(C)C)cc1 [Example 78, N—((S)-1-((2S,4R)-4-hydroxy-2-(4-(4-methylthiazol-5-yl)benzylcarbamoyl)pyrrolidin-1-yl)-3,3-dimethyl-1-oxobutan-2-yl)picolinamide]
1.28 µM	3.22 µM	2.11 µM	CC[C@H](C)[C@H](NC(=O)CCC(C)C)C(=O)N1C[C@H](O)C[C@H]1C(=O)NCc1ccc(-c2scnc2C)cc1 [Example 31, (2S,4R)-4-hydroxy-1-((2S,3S)-3-methyl-2-(4-methylpentanamido)pentanoyl)-N-(4-(4-methylthiazol-5-yl)benzyl)pyrrolidine-2-carboxamide]
0.385 µM	–	0.465 µM	Cc1ncsc1-c1ccc(CNC(=O)[C@@H]2C[C@@H](O)CN2C(=O)[C@@H](NC(=O)CCc2ccccc2)C(C)(C)C)cc1 [Example 44, (2S,4R)-1-((S)-3,3-dimethyl-2-(3-phenylpropanamido)butanoyl)-4-hydroxy-N-(4-(4-methylthiazol-5-yl)benzyl)pyrrolidine-2-carboxamide]
> 10 µM	–	–	CC[C@H](C)[C@H](NCCc1ccccc1)C(=O)N1C[C@H](O)C[C@H]1C(=O)NCc1ccc(-c2scnc2C)cc1 [Example 104, (2S,4R)-4-hydroxy-1-((2S,3S)-3-methyl-2-(phenethylamino)pentanoyl)-N-(4-(4-methylthiazol-5-yl)benzyl)pyrrolidine-2-carboxamide]
4.15 µM	–	–	Cc1ncsc1-c1ccc(CNC(=O)[C@@H]2C[C@@H](O)CN2C(=O)[C@H](C(C)C)N2CCCC2=O)cc1 [Example 98, (2S,4R)-4-hydroxy-1-((S)-3-methyl-2-(2-oxopyrrolidin-1-yl)butanoyl)-N-(4-(4-methylthiazol-5-yl)benzyl)pyrrolidine-2-carboxamide]
24.5 µM	1.22 µM	81.9 µM	COc1cccc2c1C(=O)N([C@H](C(=O)N1C[C@H](O)C[C@H]1C(=O)NCc1ccc(-c3scnc3C)cc1)C(C)C)C2 [Example 15, (2S,4R)-4-hydroxy-1-((S)-2-(7-methoxy-1-oxoisoindolin-2-yl)-3-methylbutanoyl)-N-(4-(4-methylthiazol-5-yl)benzyl)pyrrolidine-2-carboxamide]
